Measurements reported in ChEMBL document CHEMBL3425509, “Design, synthesis, and biological evaluation of benzofuran- and 2,3-dihydrobenzofuran-2-carboxylic acid N-(substituted)phenylamide derivatives as anticancer agents and inhibitors of NF-κB” (Bioorg Med Chem Lett, 2015).

What was measured:
NCI-H23 = assay: Cytotoxicity against human NCI-H23 cells assessed as cell viability at 10 uM after 72 hrs by sulforhodamine B assay relative to control; type: functional; conditions: NCI-H23, 72 h, read-out: Activity
[1] = Cytotoxicity against human PC3 cells assessed as cell viability at 10 uM after 72 hrs by sulforhodamine B assay relative to control; type: functional; conditions: PC-3, 72 h, read-out: Activity
MDA-MB-231 = assay: Cytotoxicity against human MDA-MB-231 cells assessed as cell viability at 10 uM after 72 hrs by sulforhodamine B assay relative to control; type: functional; conditions: MDA-MB-231, 72 h, read-out: Activity
ACHN = assay: Cytotoxicity against human ACHN cells assessed as cell viability at 10 uM after 72 hrs by sulforhodamine B assay relative to control; type: functional; conditions: read-out: Activity
[2] = molecular target: Nuclear factor NF-kappa-B complex (Homo sapiens) (UniProt Q00653+P19838+Q04206); assay: Inhibition of NF-kappaB (unknown origin) transcriptional activity in LPS-induced mouse RAW264.7 cells at 30 uM after 1 hr by secreted alkaline phosphatase assay relative to control; type: cell-based
[3] = Cytotoxicity against human HCT15 cells assessed as cell viability at 10 uM after 72 hrs by sulforhodamine B assay relative to control; type: functional; conditions: HCT-15, 72 h, read-out: Activity
[4] = Cytotoxicity against human NUGC3 cells assessed as cell viability at 10 uM after 72 hrs by sulforhodamine B assay relative to control; type: functional; conditions: NUGC-3, 72 h, read-out: Activity

Sequence of Nuclear factor NF-kappa-B complex (Homo sapiens) (P19838 whole entry, looked up): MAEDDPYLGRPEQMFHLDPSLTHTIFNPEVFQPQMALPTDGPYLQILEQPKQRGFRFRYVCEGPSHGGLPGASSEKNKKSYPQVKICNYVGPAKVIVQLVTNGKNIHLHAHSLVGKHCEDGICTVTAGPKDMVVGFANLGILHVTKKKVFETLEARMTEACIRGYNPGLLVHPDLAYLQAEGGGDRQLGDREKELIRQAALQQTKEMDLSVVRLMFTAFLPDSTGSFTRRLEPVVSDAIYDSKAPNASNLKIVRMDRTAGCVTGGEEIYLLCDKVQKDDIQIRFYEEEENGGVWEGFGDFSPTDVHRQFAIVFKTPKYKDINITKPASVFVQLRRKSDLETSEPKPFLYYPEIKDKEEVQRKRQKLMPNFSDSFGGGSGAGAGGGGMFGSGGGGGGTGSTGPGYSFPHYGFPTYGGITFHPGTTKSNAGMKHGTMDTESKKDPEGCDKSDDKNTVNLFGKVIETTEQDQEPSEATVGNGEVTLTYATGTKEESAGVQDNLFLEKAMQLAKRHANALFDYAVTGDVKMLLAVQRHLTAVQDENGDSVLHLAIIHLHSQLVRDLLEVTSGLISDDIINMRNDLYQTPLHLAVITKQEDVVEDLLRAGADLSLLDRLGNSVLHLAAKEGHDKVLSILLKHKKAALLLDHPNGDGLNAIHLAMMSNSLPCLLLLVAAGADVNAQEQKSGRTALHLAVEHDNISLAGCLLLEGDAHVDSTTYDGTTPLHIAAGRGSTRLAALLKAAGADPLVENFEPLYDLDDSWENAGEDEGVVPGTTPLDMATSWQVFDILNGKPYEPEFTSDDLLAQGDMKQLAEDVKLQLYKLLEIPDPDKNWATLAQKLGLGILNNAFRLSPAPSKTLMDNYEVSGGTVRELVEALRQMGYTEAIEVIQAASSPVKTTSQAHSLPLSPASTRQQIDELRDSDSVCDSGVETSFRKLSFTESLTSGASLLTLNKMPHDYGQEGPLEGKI
Sequence of Nuclear factor NF-kappa-B complex (Homo sapiens) (Q00653 whole entry, looked up): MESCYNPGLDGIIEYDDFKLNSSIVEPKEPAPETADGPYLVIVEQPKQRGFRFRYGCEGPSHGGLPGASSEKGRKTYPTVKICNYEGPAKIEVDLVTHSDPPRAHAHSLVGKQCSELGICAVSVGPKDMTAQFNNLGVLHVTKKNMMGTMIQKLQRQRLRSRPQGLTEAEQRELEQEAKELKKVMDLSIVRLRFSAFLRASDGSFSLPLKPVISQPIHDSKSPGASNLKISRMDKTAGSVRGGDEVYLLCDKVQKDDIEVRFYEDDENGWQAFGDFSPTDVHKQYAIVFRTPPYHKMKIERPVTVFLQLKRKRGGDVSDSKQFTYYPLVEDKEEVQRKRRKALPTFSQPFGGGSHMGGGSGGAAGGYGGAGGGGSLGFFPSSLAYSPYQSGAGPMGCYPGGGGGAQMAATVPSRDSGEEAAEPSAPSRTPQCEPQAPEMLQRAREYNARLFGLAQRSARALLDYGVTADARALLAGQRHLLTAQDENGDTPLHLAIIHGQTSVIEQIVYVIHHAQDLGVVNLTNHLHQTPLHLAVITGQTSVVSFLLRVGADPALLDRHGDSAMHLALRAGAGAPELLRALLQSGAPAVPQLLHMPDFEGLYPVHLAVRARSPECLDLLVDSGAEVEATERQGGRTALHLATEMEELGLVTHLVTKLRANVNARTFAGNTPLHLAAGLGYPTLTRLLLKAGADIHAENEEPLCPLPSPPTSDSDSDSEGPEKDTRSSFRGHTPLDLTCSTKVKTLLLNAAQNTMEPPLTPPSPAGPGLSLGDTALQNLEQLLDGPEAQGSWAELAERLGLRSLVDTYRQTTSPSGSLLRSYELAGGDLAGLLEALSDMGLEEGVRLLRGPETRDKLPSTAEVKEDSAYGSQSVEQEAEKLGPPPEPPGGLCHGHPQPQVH
Sequence of Nuclear factor NF-kappa-B complex (Homo sapiens) (Q04206 whole entry, looked up): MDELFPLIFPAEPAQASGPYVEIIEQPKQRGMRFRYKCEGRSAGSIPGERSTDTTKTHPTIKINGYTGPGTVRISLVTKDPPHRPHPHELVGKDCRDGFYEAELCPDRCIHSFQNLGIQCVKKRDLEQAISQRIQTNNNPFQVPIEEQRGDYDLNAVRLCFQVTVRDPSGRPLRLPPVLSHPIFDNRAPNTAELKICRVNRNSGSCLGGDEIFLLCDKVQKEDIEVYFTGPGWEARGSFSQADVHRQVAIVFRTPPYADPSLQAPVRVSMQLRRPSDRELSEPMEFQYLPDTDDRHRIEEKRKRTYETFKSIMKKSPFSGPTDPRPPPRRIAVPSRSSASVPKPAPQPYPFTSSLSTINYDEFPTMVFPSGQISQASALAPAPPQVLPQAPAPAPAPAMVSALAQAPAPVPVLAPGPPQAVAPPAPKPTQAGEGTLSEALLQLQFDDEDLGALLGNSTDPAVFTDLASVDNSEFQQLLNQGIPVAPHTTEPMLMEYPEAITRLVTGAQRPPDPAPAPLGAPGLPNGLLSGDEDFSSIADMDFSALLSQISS

Row | SMILES | inhibition [2] [%] | viability at 10 µM (NCI-H23) [%] | viability at 10 µM [1] [%] | viability at 10 µM (MDA-MB-231) [%] | viability at 10 µM (ACHN) [%] | viability at 10 µM [3] [%] | viability at 10 µM [4] [%]
1 | O=C(Nc1cccc(Cl)c1)C1Cc2ccccc2O1 (stereo not given) | 43.5 | 101 | 91 | 80 | 134 | 97 | 101
2 | O=C(Nc1ccc(O)cc1)C1Cc2ccccc2O1 (stereo not given) | 18.5 | 106 | 98 | 91 | 122 | 88 | 102
3 | O=C(Nc1cc(C(F)(F)F)ccc1C(F)(F)F)c1cc2ccccc2o1 | 28.5 | 77 | 95 | 98 | 84 | 88 | 89
4 | O=C(Nc1ccccc1O)C1Cc2ccccc2O1 (stereo not given) | 20.5 | 102 | 109 | 83 | 134 | 102 | 103
5 | Cc1ccc(NC(=O)C2Cc3ccccc3O2)cc1 (stereo not given) | 34.5 | 105 | 80 | 96 | 134 | 100 | 112
6 | Cc1cccc(NC(=O)C2Cc3ccccc3O2)c1 (stereo not given) | 25 | 98 | 96 | 95 | 145 | 99 | 108
7 | O=C(Nc1ccc(Cl)cc1)C1Cc2ccccc2O1 (stereo not given) | 41.5 | 89 | 71 | 100 | 143 | 55 | 100

Continued, in another order:

Row | inhibition [2] [%] | SMILES | viability at 10 µM (NCI-H23) [%] | viability at 10 µM [1] [%] | viability at 10 µM (MDA-MB-231) [%] | viability at 10 µM (ACHN) [%] | viability at 10 µM [3] [%] | viability at 10 µM [4] [%]
8 | 43 | O=C(Nc1ccc(Cl)cc1)c1cc2ccccc2o1 | 92 | 84 | 96 | 89 | 68 | 91
9 | 11 | O=C(Nc1cccc([N+](=O)[O-])c1)c1cc2ccccc2o1 | 99 | 95 | 111 | 93 | 88 | 98
10 | 70 | Cc1ccc(NC(=O)c2cc3ccccc3o2)cc1C | 100 | 92 | 92 | 103 | 95 | 91
11 | 36.5 | O=C(Nc1cc(Cl)ccc1Cl)c1cc2ccccc2o1 | 96 | 97 | 101 | 96 | 81 | 89
12 | 63 | COc1cc(NC(=O)c2cc3ccccc3o2)cc(OC)c1 | 102 | 92 | 106 | 102 | 95 | 90
13 | 41 | O=C(Nc1cccc(O)c1)c1cc2ccccc2o1 | 95 | 90 | 100 | 84 | 85 | 87
14 | 47.5 | O=C(Nc1cccc(C(F)(F)F)c1)c1cc2ccccc2o1 | 92 | 96 | 105 | 83 | 75 | 79
15 | 34.5 | Cc1ccc(NC(=O)c2cc3ccccc3o2)cc1 | 104 | 103 | 105 | 96 | 82 | 95
